The values that follow come from patent US8546381B2, “Bridged heterocyclic compounds and methods of use” (Medivation Technologies, Inc., priority 2008, dated 2013).

Test [1] has as its target T1, human recombinant serotonin (5-Hydroxytryptamine) 5-HT2B receptor (Homo sapiens, UniProt P41595).
T1 construct: expressed in transfected cells; host or cells: CHO-K1 cells
Put plainly: Serotonin 5-HT2B radioligand binding ([3H]LSD). The note with it: for inhibition at 1 µM: read-out: Serotonin 5-HT2B, inhibition of ligand binding (1 μM). Here is the method:
To evaluate in radioligand binding assays the activity of compounds of the invention, human recombinant serotonin (5-Hydroxytryptamine) 5-HT2B receptor expressed in Chinese hamster ovary (CHO-K1) cells (Bonhaus, D. W. et al., Br. J. Pharmacol. 115:622, 1995) in a modified Tris-HCl buffer (50 mM Tris-HCl, pH 7.4, 4 mM CaCl2, 0.1% Ascorbic Acid) was used. Compounds of invention were incubated with 1.2 nM [^3H]Lysergic acid diethylamide (LSD) for 60 minutes at 37° C. Non-specific binding was estimated in the presence of 10 μM Serotonin (5-HT). Receptor proteins were filtered and washed, the filters were then counted to determine [^3H]LSD specifically bound. Compounds were screened at 1 μM or lower, using 1% DMSO as vehicle. Compounds of the invention were tested in this biochemical assay and percent inhibition of specific binding was determined. Biochemical assay results are presented as the percent inhibition of specific binding in Table 4.

The target of test [2] is T2, rat adrenergic α1A receptor (Rattus norvegicus, UniProt P43140).
T2 construct: obtained from Wistar Rat submaxillary glands; from tissue; host or cells: Wistar rat submaxillary glands
T2 sequence (P43140 1-466): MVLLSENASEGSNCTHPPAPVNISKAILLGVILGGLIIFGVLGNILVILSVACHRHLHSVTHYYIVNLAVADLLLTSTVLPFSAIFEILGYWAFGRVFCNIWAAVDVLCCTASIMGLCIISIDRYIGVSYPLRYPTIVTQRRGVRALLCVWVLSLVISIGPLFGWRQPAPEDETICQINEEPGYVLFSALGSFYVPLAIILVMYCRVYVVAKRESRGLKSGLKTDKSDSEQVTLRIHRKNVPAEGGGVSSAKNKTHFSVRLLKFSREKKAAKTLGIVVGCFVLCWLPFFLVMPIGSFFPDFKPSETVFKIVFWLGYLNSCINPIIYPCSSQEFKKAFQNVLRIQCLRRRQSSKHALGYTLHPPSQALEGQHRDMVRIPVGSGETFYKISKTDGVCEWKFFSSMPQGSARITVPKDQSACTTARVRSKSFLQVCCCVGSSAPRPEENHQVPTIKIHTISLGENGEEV
As to the kind of experiment: Adrenergic α1A radioligand binding ([3H]Prozosin). The note with it: for inhibition at 1 µM: read-out: Adrenergic α1A, inhibition of ligand binding (1 μM). Here is the method: To evaluate in radioligand binding assays the activity of compounds of the invention, rat adrenergic α1A receptor obtained from Wistar Rat submaxillary glands (Michel, A. D. et al., Br. J. Pharmacol. 98:883, 1989) in a modified Tris-HCl buffer (50 mM Tris-HCl buffer, pH 7.4, 0.5 mM EDTA) was used. Compounds of the invention were incubated with 0.25 nM [^3H]Prozosin for 60 minutes at 25° C. Non-specific binding was estimated in the presence of 10 μM phentolamine. Receptor proteins were filtered and washed, the filters were then counted to determine [^3H]Prozosin specifically bound. Compounds of the invention were screened at 1 μM or lower, using 1% DMSO as vehicle. Compounds of the invention were tested in this biochemical assay and percent inhibition of specific binding was determined.

Test [3] deals with T3, human recombinant serotonin (5-Hydroxytryptamine) 5-HT5A receptor (Homo sapiens, UniProt P47898).
T3 construct: expressed in transfected cells; host or cells: CHO-K1 cells
As to the kind of experiment: Serotonin 5-HT5A radioligand binding ([3H]LSD). To be noted: read-out: Serotonin 5-HT5A, inhibition of ligand binding (1 μM). Here is the method:
To evaluate in radioligand binding assays the activity of compounds of the invention, human recombinant serotonin (5-Hydroxytryptamine) 5-HT5A receptor expressed in Chinese hamster ovary (CHO-K1) cells (Rees, S. et al., FEBS Lett. 355:242, 1994) in a modified Tris-HCl buffer (50 mM Tris-HCl, pH 7.4, 10 mM MgCl2, 0.5 mM EDTA) was used. Compounds of the invention were incubated with 1.7 nM [^3H]Lysergic acid diethylamide (LSD) for 60 minutes at 37° C. Non-specific binding was estimated in the presence of 100 μM Serotonin (5-HT). Receptor proteins were filtered and washed, the filters were then counted to determine [^3H]LSD specifically bound. Compounds were screened at 1 μM or lower, using 1% DMSO as vehicle. Compounds of the invention were tested in this biochemical assay and percent inhibition of specific binding was determined. Biochemical assay results are presented as the percent inhibition of specific binding in Table 4.

The target of test [4] is T4, human recombinant adrenergic α2C receptor (Homo sapiens, UniProt P18825).
T4 construct: expressed in transfected cells; host or cells: insect Sf9 cells
T4 sequence (P18825 1-462): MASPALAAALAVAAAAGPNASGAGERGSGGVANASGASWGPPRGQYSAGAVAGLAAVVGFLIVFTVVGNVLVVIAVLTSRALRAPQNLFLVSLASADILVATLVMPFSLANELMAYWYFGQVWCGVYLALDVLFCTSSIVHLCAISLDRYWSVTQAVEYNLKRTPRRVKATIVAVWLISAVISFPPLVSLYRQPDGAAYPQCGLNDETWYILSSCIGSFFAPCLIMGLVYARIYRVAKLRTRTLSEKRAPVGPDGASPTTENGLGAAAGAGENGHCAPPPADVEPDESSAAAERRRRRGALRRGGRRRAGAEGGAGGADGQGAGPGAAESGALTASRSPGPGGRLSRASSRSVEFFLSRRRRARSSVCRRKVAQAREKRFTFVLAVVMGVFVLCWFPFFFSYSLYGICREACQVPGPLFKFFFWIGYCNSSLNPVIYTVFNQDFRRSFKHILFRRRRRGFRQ
Put plainly: Adrenergic α2C radioligand binding ([3H]MK-912). To be noted: for inhibition at 1 µM: read-out: Adrenergic α2C, inhibition of ligand binding (1 μM). Here is the method:
To evaluate in radioligand binding assays the activity of compounds of the invention, human recombinant adrenergic α2C receptor expressed in insect Sf9 cells (Uhlen S et al. J Pharmacol Exp Ther. 271:1558, 1994) in a modified Tris-HCl buffer (50 mM Tris-HCl, pH 7.4, 12.5 mM MgCl2, 2 mM EDTA) was used. Compounds of the invention were incubated with 1 nM [^3H]MK-912 for 60 minutes at 25° C. Non-specific binding was estimated in the presence of 10 μM WB-4101. Receptor proteins were filtered and washed, the filters were then counted to determine [^3H]MK-912 specifically bound. Compounds were screened at 1 μM or lower, using 1% DMSO as vehicle. Compounds of the invention were tested in this biochemical assay and percent inhibition of specific binding was determined.

T1 sequence (P41595 whole entry): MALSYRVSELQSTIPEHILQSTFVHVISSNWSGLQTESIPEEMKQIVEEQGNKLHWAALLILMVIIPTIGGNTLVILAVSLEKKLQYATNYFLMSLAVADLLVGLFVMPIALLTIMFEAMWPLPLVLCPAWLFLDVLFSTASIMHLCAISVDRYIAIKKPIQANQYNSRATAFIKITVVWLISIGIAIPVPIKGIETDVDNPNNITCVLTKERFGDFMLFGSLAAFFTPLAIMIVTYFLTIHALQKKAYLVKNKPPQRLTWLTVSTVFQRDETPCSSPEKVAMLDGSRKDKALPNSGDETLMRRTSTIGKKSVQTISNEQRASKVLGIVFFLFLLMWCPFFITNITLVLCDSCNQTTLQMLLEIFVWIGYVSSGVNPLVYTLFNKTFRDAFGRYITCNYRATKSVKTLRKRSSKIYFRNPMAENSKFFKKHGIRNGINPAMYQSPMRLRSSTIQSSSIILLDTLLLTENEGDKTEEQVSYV
T3 sequence (P47898 whole entry): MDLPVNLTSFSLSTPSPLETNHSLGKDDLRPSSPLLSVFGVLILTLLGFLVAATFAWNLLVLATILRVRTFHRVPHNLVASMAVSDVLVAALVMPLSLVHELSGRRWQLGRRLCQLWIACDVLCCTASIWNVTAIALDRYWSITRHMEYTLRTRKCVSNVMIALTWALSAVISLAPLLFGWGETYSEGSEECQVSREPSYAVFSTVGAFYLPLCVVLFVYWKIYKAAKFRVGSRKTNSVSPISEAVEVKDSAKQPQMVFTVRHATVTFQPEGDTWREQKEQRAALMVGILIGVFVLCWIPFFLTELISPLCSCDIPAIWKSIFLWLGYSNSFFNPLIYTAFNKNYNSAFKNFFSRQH

Take `Cc1ccc2c(c1)c1c(n2CCc2ccccc2)CC2CCC1N2C` (stereo not shown) [Compound 2]: the inhibition at 0.03 µM came to 37% in test [1] (read-out: Serotonin 5-HT2B, inhibition of ligand binding (0.03 μM)); 66% in test [2] (read-out: Adrenergic α1A, inhibition of ligand binding (0.03 μM)); 14% in test [4] (read-out: Adrenergic α2C, inhibition of ligand binding (0.03 μM)). Further, the inhibition at 0.3 µM in test [1] (read-out: Serotonin 5-HT2B, inhibition of ligand binding (0.3 μM)) worked out at 88%; in test [2] (read-out: Adrenergic α1A, inhibition of ligand binding (0.3 μM)), 97%; in test [4] (read-out: Adrenergic α2C, inhibition of ligand binding (0.3 μM)), 69%. Also, the inhibition at 1 µM stood at 71% in test [1], 98% in test [2], 86% in test [3] and 97% in test [4].
For the molecule `Cc1ccc2c(c1)c1c(n2CCc2ccccc2)CC2CCCC1N2C` (stereo not shown) [Compound 56], the inhibition at 1 µM was -11% in test [1], 94% in test [2], 40% in test [3] and 55% in test [4].
Consider `CN1C2CCC1c1c(n(CCc3ccc(Cl)cc3)c3ccc(Cl)cc13)C2` (stereo not shown) [Compound 58], for which the inhibition at 1 µM is 32% in test [1], 89% in test [2], 69% in test [3] and 89% in test [4].
`CN1C2CCC1c1c(n(CCc3ccc(F)cc3)c3ccc(Cl)cc13)C2` (stereo not shown) [Compound 57]: the inhibition at 1 µM in test [1] is 48%; in test [2], 90%; in test [3], 48%; in test [4] it was 83%.
